# Test results taken from US10391070B2, “Compositions and methods for treating neurological diseases or injury” (MUSC FOUNDATION FOR RESEARCH DEVELOPMENT, priority 2012, dated 2019).
# What was measured:
# HO-1 = assay: qRT-PCR of antioxidant response gene HO-1; type: cell-based, mouse; conditions: HT22, 10 mM glutamate 16 hrs, relative to glutamate only
# Procedure: HT22 cells were seeded onto cell culture treated 6-well plates at 3.0×10^5 cells per well in 2 mL of medium and maintained at 37° C. in 5% CO2 overnight prior to the initiation of experimental treatments. Cells were subsequently treated with 1 mL of medium containing glutamate (monosodium glutamate, Sigma-Aldritch, 1 M stock concentration in media, to achieve a final concentration of 10 mM) plus inhibitors (stock in DMSO) and maintained at 37° C. in 5% CO2. After 16 hrs, the media was collected and the cells harvested by trypsanization. After centrifugation, pelleted cells were washed with cold Hanks' Balanced Salt Solution (HBSS Ca^2+/Mg^2+ Free; Invitrogen; KCl 5.33 mM, KH2PO4 0.441 mM, NaHCO3 4.17 mM, NaCl 137.93 mM, Na2HPO4 0.338 mM, D-Glucose 5.56 mM), qRT-PCR was used to detect HO-1, NQO-1, and PGAM5 mRNAs in the HT22 cells. […] Therefore β2-microglobulin was used as a reference gene (Barrionuevo and Burggren, 1999). HT22 cells were cultured as described for 16 hrs. Total RNAs were extracted using the RNEasy kit (Qiagen), and transcripts of interest were amplified by PCR using the 1-step Syber Green qRT-PCR kit (Quanta) and the following specific primers (Harvard PrimerBank; Integrated DNA Technologies): HO-1, 5′-[…]-3′ (SEQ ID NO:1) and 5′-[…]-3′ (SEQ ID NO:2); PGAM5, 5′-[…]-3′ (SEQ ID NO:3) and 5′-[…]-3′ (SEQ ID NO:4); NQO-1, 5′-[…]-3′ (SEQ ID NO:5) and 5′-[…]-3′ (SEQ ID NO:6); and β2-microglobulin, 5′-[…]-3′ (SEQ ID NO:7) and 5′-[…]-3′ (SEQ ID NO:8). Linearity of the primers was verified before use, and fold changes were calculated as previously described using the Livak method (Barrionuevo and Burggren, 1999).
# HT22 cells = assay: t-BuOOH toxicity protection (MTS cell viability); type: cell-based, mouse; conditions: HT22, 50 μM t-BuOOH
# Procedure: Cell viability was assessed by the ability of the viable cells to metabolize 3-(4,5-dimethylthiazol-2-yl)-5-(3-carboxymethoxyphenyl)-2(4-sulfophenyl)2-H-tetrazolium, inner salt (MTS), as described previously (Cory et al., 1991). The metabolism of tetrazolium salts is often used to measure cellular proliferation, but in the system used here, it has been previously shown to correlate well with cell viability as determined by trypan blue exclusion and colony-forming assays (Davis and Maher, 1994). Briefly, HT-22 cells were seeded onto 96-well plates at 5.0×10^3 cells per well in 75 μL of medium and maintained at 37° C. in 5% CO2 overnight prior to the initiation of experimental treatments. For glutamate toxicity testing, cells were subsequently treated with 25 μL of medium containing glutamate (monosodium glutamate, Sigma, 1 M stock concentration in media, to achieve a final concentration of 10 mM) plus inhibitors (stock in DMSO) and maintained at 37° C. in 5% CO2. For t-BuOOH toxicity testing, cells were subsequently treated with 25 μL of medium containing t-BuOOH (Sigma, 10 mM stock concentration, to achieve a final concentration of 50 μM) plus inhibitors (stock in DMSO) and maintained at 37° C. in 5% CO2 for 3 hours, after which the media was removed, cells washed gently with HBSS, the media replaced with standard culture media, and the cells returned to incubation at 37° C. in 5% CO2. For both glutamate and t-BuOOH treatments, 10 μl of MTS solution was added to each well 24 hrs after initial treatment, and the cells were maintained in growth medium for 2 h at 37° C. Absorbance at 490 nm was subsequently measured by a SpectraMax 190 plate reader (Molecular Devices). The growth medium without cells in the presence of MTS solution was used as solution background and untreated cells were considered the controls. Cell viability was calculated as a percentage compared with untreated controls. EC50 determinations were based on 12-point titrations using GraphPad Prism, and each experiment was repeated at least four times. Morphology of HT22 cells following treatments was determined by phase-contrast microscopy. Digital images of cells grown on cell culture plates were captured at 10× magnification.
# In light of the findings that the protection against glutamate induced cell death provided by VK2, 2q, and 2j, are at least partially mediated by the attenuation of the increased production of endogenous ROS, the inventors also examined the effects of these compounds on tert-butylhydroperoxide (t-BuOOH) induced cell death. t-BuOOH is a short chain analog of the lipid hydroperoxides formed from peroxidation reactions during oxidative stress that is cytotoxic to cells (Lemasters and Nieminen, 1997). […] It is well documented that cells undergo rapid and extensive fragmentation in the early stages of cell death (Bossy-Wetzel et al., 2003; Frank et al., 2001; Breckenridge et al., 2008; Jagasia et al., 2005; Lee et al., 2004). Recent studies have shown that mitochondrial fragmentation is regulated by the translocation of dynamin-related protein 1 (Drp1) from the cytosol to the mitochondria, where it assembles to form spirals at division sites (Smirnova et al., 2001). Although the exact molecular mechanism is still not well studied, the activity of Drp1 is regulated by the phosphorylation and dephosphorylation of specific serine residues by protein kinases and phosphatases such as calcineurin and the PGAM5 (Wang et al., 2012; Chang et al., 2007). […]
Compound,HO-1 gene expression (HO-1),protection from t-BuOOH induced cell death (HT22 cells)
"O=C1C=C(NCc2ccccc2)C(=O)c2ccccc21 [Compound 2j, 2-(benzylamino)naphthalene-1,4-dione]",significantly decreased HO-1 expression,capable of protecting HT22 cells from t-BuOOH
"O=C1C=C(NCc2cccc(Cl)c2)C(=O)c2ccccc21 [Compound 2q, 2-((3-chlorobenzyl)amino)naphthalene-1,4-dione]",significantly decreased HO-1 expression,capable of protecting HT22 cells from t-BuOOH
"menaquinones [VK2, reference compound]",significantly decreased HO-1 expression,capable of protecting HT22 cells from t-BuOOH
